Literature values as cited in patent US20240318128A1, “BIOFUNGICIDE PRODUCTION BY CONIOCHAETA AND APPLICATION IN CONTROL OF EARLY BLIGHT OF POTATO” (The United States of America, as represented by the …, priority 2023, published 2024).

System: yeast and bacteria
Conditions: Segeth et al. 2003

coniocetin
spectrum of inhibition: inhibits
